Results reported in patent US5494790A, “α-3 sialyltransferase” (Kyowa Hakko Kogyo Co., Ltd., priority 1991, dated 1996).

Tests used:
[1] = biological target: T1, α2→3 sialyltransferase encoded in the plasmid pAMoPRSAW17-31F (fused protein with the IgG-binding region of Staphylococcus aureus protein A) (Homo sapiens, UniProt Q11206); experiment: Sialyltransferase activity on IgG Sepharose, HPLC of pyridylaminated sugar chain substrates (Table 2); format: biochemical; conditions: for α2→3 Sialyltransferase activity, pAMoPRSAW17-31F, pmol: 0.1 mM substrate, 5 μl IgG Sepharose, 5 mM CMP-sialic acid, 37° C., 2 hours; for α2→3 Sialyltransferase activity, pAMoPRSAW17-31F, Relative activity: activity to the substrate LNnT taken as 100; for acceptance as substrate by the α2→3 sialyltransferase (in words): IgG Sepharose from Namalwa cells having pAMoPRSAW17-31F
T1 construct: from 31st Phe to 329th Phe; made in house
T1 sequence (Q11206 35-333): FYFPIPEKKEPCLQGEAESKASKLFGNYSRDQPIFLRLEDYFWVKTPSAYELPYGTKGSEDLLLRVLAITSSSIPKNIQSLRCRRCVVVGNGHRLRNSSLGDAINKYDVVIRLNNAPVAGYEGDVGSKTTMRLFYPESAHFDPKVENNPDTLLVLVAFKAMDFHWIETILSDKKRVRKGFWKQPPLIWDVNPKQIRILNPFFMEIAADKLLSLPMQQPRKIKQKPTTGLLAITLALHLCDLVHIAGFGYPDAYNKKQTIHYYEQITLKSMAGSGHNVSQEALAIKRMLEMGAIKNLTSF

[2] = tested on: α2→3 Sialyltransferase encoded in the plasmid pAMoPRSAL-35F (fused protein with the IgG-binding region of Staphylococcus aureus protein A); experiment: Sialyltransferase activity on IgG Sepharose, HPLC of pyridylaminated sugar chain substrates (Table 1); format: biochemical, human; conditions: for α2→3 Sialyltransferase activity, pAMoPRSAL-35F, pmol: 0.1 mM substrate, 5 μl IgG Sepharose, 5 mM CMP-sialic acid, 37° C., 2 hours; for α2→3 Sialyltransferase activity, pAMoPRSAL-35F, Relative activity: activity to the substrate LNnT taken as 100; for acceptance as substrate by the α2→3 sialyltransferase (in words): IgG Sepharose from Namalwa cells having pAMoPRSAL-35F
[3] = biological target: T2, known α2→3 sialyltransferase (Rattus norvegicus, UniProt Q02734); conditions: activity to the substrate LNT taken as 100; cited from earlier work
T2 sequence (Q02734 1-374): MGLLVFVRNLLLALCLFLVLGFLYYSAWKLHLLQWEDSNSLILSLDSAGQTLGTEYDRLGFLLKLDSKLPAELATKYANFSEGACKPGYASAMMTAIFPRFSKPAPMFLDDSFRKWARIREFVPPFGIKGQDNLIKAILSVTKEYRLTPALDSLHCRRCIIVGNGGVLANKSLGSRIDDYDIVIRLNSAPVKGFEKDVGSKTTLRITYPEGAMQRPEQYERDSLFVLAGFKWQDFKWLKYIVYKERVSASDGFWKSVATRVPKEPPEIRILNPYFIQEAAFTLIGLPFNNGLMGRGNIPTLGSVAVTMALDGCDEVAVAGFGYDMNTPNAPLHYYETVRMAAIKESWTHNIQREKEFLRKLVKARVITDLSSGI

| SMILES | α2→3 Sialyltransferase activity, pAMoPRSAW17-31F, pmol [1] [pmol] | α2→3 Sialyltransferase activity, pAMoPRSAW17-31F, Relative activity [1] | α2→3 Sialyltransferase activity, pAMoPRSAL-35F, pmol [2] [pmol] | α2→3 Sialyltransferase activity, pAMoPRSAL-35F, Relative activity [2] | acceptance as substrate by the α2→3 sialyltransferase (in words) [1] | acceptance as substrate by the α2→3 sialyltransferase (in words) [2] | Known α2→3 ST Relative activity (Table 1) [3] | Known α2→3 ST Relative activity (Table 2) [3] |
| --- | --- | --- | --- | --- | --- | --- | --- | --- |
| CC(=O)N[C@H]1[C@H](O[C@H]2[C@@H](O)[C@@H](CO)O[C@@H](O[C@H]3[C@H](O[C@@H]4O[C@@H](C)[C@@H](O)[C@@H](O)[C@@H]4O)[C@@H](O)C(O)O[C@@H]3CO)[C@@H]2O)O[C@H](CO)[C@@H](O)[C@@H]1O[C@@H]1O[C@H](CO)[C@H](O)[C@H](O)[C@H]1O (some centres unmarked) [lacto-N-fucopentaose V] | 36.3 | 32 | 28.8 | 56 | – | – | – | – |
| CC(=O)N[C@H]1[C@H](O[C@H]2[C@@H](O)[C@@H](CO)O[C@@H](O[C@H]3[C@H](O)[C@@H](O)C(O)O[C@@H]3CO)[C@@H]2O)O[C@H](CO)[C@@H](O[C@@H]2O[C@H](CO)[C@H](O)[C@H](O)[C@H]2O)[C@@H]1O[C@@H]1O[C@@H](C)[C@@H](O)[C@@H](O)[C@@H]1O (some centres unmarked) [lacto-N-fucopentaose III] | 9.4 | 8 | 8.1 | 16 | can take LNFP-III as the substrate | can take LNFP-III as the substrate | – | – |
| CC(=O)N[C@H]1[C@H](O[C@H]2[C@@H](O)[C@@H](CO)O[C@@H](O[C@H]3[C@H](O)[C@@H](O)C(O)O[C@@H]3CO)[C@@H]2O)O[C@H](CO)[C@@H](O)[C@@H]1O[C@@H]1O[C@H](CO)[C@H](O)[C@H](O)[C@H]1O (some centres unmarked) [LNT, Galβ1-3GlcNAcβ1-3Galβ1-4Glc] | 47.5 | 42 | 23.8 | 46 | can take not only LNnT but also LNT as the substrate | can take not only LNnT but also LNT as the substrate | 100 | 100 |
| CC(=O)N[C@H]1[C@H](O[C@H]2[C@@H](O)[C@@H](CO)O[C@@H](O[C@H]3[C@H](O)[C@@H](O)C(O)O[C@@H]3CO)[C@@H]2O)O[C@H](CO)[C@@H](O[C@@H]2O[C@H](CO)[C@H](O)[C@H](O)[C@H]2O)[C@@H]1O (some centres unmarked) [LNnT, Galβ1-4GlcNAcβ1-3Galβ1-4Glc] | 113.8 | 100 | 51.3 | 100 | can take not only LNnT but also LNT as the substrate | can take not only LNnT but also LNT as the substrate | 6 | 6 |
